The values that follow come from US7994185B2, “Benzene sulfonamide thiazole and oxazole compounds” (Glaxo Smith Kline LLC, priority 2008, dated 2011).

In one assay the target is T1, BRAFV600E full-length (amino acids 2-766) (Homo sapiens, UniProt P15056, V600E).
T1 construct: His6-tagged BRAFV600E full-length (amino acids 2-766); His6; made in house; host or cells: baculovirus expression system (insect cells)
T1 sequence (P15056 2-766 V600E): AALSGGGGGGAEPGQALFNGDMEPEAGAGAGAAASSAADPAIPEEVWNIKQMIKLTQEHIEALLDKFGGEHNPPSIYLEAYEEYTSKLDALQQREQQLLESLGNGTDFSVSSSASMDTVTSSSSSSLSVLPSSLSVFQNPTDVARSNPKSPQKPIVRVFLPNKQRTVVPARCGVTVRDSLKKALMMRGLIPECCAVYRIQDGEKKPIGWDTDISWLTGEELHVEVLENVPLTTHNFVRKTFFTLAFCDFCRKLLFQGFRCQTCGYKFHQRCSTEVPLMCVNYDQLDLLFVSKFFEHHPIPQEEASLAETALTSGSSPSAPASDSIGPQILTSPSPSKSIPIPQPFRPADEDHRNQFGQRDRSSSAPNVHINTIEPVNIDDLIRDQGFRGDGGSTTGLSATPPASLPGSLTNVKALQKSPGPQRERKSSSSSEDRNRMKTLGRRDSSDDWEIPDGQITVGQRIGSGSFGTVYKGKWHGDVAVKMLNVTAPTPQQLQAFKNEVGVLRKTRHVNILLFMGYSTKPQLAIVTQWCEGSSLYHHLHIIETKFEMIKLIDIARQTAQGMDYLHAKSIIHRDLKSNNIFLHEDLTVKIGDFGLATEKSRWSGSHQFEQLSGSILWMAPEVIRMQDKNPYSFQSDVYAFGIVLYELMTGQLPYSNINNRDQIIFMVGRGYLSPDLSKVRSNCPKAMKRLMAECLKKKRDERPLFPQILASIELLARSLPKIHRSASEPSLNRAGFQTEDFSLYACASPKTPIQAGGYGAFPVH
As to the kind of experiment: B-Raf Accelerated MEK ATPase assay (BRAMA). Format: biochemical. The settings on record: B-Raf pIC50, Table 1b; later runs, average pIC50 for the one or more runs, categorized. Here is the method:
Compounds of the present invention were tested for B-Raf protein serine kinase inhibitory activity in a B-Raf Accelerated MEK ATPase assay (BRAMA). […] The BRAMA assay is a high sensitivity assay which measures an intrinsic MEK-mediated ATP hydrolysis uncoupled from downstream ERK phosphorylation by coupling the formation of ADP to NADH oxidation through the enzymes pyruvate kinase and lactate dehydrogenase. When ADP production is initiated by addition of catalytic amounts of an activated Raf enzyme and non-phosphorylated MEK, one observes robust ADP production concomitant with Raf-mediated phosphorylation of MEK. The method is disclosed in: C. Rominger, M. Schaber, E. May. Assay for B-Raf Activity Based on Intrinsic MEK ATPase Activity.
In the case of `C[C@@H](O)CNc1nccc(-c2sc(C(C)(C)C)nc2-c2cccc(NS(=O)(=O)c3c(F)cccc3F)c2F)n1` [Example 290, N-{3-[2-(1,1-dimethylethyl)-5-(2-{[(2R)-2-hydroxypropyl]amino}-4-pyrimidinyl)-1,3-thiazol-4-yl]-2-fluorophenyl}-2,6-difluorobenzenesulfonamide], the IC50 was ≤ 3.16 nM.

As for `C[C@H](O)CNc1nccc(-c2sc(C(C)(C)C)nc2-c2cccc(NS(=O)(=O)c3c(F)cccc3F)c2F)n1` [Example 291, N-{3-[2-(1,1-dimethylethyl)-5-(2-{[(2S)-2-hydroxypropyl]amino}-4-pyrimidinyl)-1,3-thiazol-4-yl]-2-fluorophenyl}-2,6-difluorobenzenesulfonamide], the IC50 was ≤ 3.16 nM.

For the compound `CC(C)(C)c1nc(-c2cccc(NS(=O)(=O)c3c(F)cccc3F)c2F)c(-c2ccnc(NCCC#N)n2)s1` [Example 292, N-{3-[5-{2-[(2-cyanoethyl)amino]-4-pyrimidinyl}-2-(1,1-dimethylethyl)-1,3-thiazol-4-yl]-2-fluorophenyl}-2,6-difluorobenzenesulfonamide], the IC50 was ≤ 3.16 nM.

With `CC(C)(C)c1nc(-c2cccc(NS(=O)(=O)c3c(F)cccc3F)c2F)c(-c2ccnc(NCCO)n2)s1` [Example 293, N-[3-(2-(1,1-dimethylethyl)-5-{2-[(2-hydroxyethyl)amino]-4-pyrimidinyl}-1,3-thiazol-4-yl)-2-fluorophenyl]-2,6-difluorobenzenesulfonamide], the IC50 was ≤ 3.16 nM.

With `CC(C)(C)c1nc(-c2cccc(NS(=O)(=O)c3c(F)cccc3F)c2F)c(-c2ccnc(NC3CC3)n2)s1` [Example 294, N-{3-[5-[2-(cyclopropylamino)-4-pyrimidinyl]-2-(1,1-dimethylethyl)-1,3-thiazol-4-yl]-2-fluorophenyl}-2,6-difluorobenzenesulfonamide], the IC50 was ≤ 3.16 nM.

Take `CC(C)(C)c1nc(-c2cccc(NS(=O)(=O)c3c(F)cccc3F)c2F)c(-c2ccnc(N)n2)o1` [Example 296, N-{3-[5-(2-amino-4-pyrimidinyl)-2-(1,1-dimethylethyl)-1,3-oxazol-4-yl]-2-fluorophenyl}-2,6-difluorobenzenesulfonamide]: the IC50 is ≤ 3.16 nM.

As for `CC(C)(C)c1nc(-c2cccc(NS(=O)(=O)c3cc(F)ccc3F)c2F)c(-c2ccnc(N)n2)o1` [Example 297, N-{3-[5-(2-amino-4-pyrimidinyl)-2-(1,1-dimethylethyl)-1,3-oxazol-4-yl]-2-fluorophenyl}-2,5-difluorobenzenesulfonamide], the IC50 is ≤ 3.16 nM.

`CC(C)(C)c1nc(-c2cccc(NS(=O)(=O)c3ccco3)c2F)c(-c2ccnc(N)n2)o1` [Example 298, N-{3-[5-(2-amino-4-pyrimidinyl)-2-(1,1-dimethylethyl)-1,3-oxazol-4-yl]-2-fluorophenyl}-2-furansulfonamide]: the IC50 is ≤ 3.16 nM.

In the case of `CC(C)(C)c1nc(-c2cccc(NS(=O)(=O)c3ccoc3)c2F)c(-c2ccnc(N)n2)o1` [Example 299, N-{3-[5-(2-amino-4-pyrimidinyl)-2-(1,1-dimethylethyl)-1,3-oxazol-4-yl]-2-fluorophenyl}-3-furansulfonamide], the IC50 was ≤ 3.16 nM.

For the compound `O=S(=O)(Nc1cccc(-c2nc(C3CCOCC3)sc2-c2ccnc(NCCO)n2)c1F)c1ccoc1` [Example 300, N-{2-fluoro-3-[5-{2-[(2-hydroxyethyl)amino]-4-pyrimidinyl}-2-(tetrahydro-2H-pyran-4-yl)-1,3-thiazol-4-yl]phenyl}-3-furansulfonamide], the IC50 is ≤ 3.16 nM.

Regarding `CCN(CC)CCNc1nccc(-c2sc(C3CCOCC3)nc2-c2cccc(NS(=O)(=O)c3ccoc3)c2F)n1` [Example 301, N-{3-[5-(2-{[2-(diethylamino)ethyl]amino}-4-pyrimidinyl)-2-(tetrahydro-2H-pyran-4-yl)-1,3-thiazol-4-yl]-2-fluorophenyl}-3-furansulfonamide], the IC50 was ≤ 3.16 nM.

As for `C[C@@H](O)CNc1nccc(-c2sc(C3CCOCC3)nc2-c2cccc(NS(=O)(=O)c3ccoc3)c2F)n1` [Example 302, N-{2-fluoro-3-[5-(2-{[(2R)-2-hydroxypropyl]amino}-4-pyrimidinyl)-2-(tetrahydro-2H-pyran-4-yl)-1,3-thiazol-4-yl]phenyl}-3-furansulfonamide], the IC50 is ≤ 3.16 nM.

`C[C@H](O)CNc1nccc(-c2sc(C3CCOCC3)nc2-c2cccc(NS(=O)(=O)c3ccoc3)c2F)n1` [Example 303, N-{2-fluoro-3-[5-(2-{[(2S)-2-hydroxypropyl]amino}-4-pyrimidinyl)-2-(tetrahydro-2H-pyran-4-yl)-1,3-thiazol-4-yl]phenyl}-3-furansulfonamide]: the IC50 is ≤ 3.16 nM.

`CC(C)CNc1nccc(-c2sc(C3CCOCC3)nc2-c2cccc(NS(=O)(=O)c3ccoc3)c2F)n1` [Example 304, N-{2-fluoro-3-[5-{2-[(2-methylpropyl)amino]-4-pyrimidinyl}-2-(tetrahydro-2H-pyran-4-yl)-1,3-thiazol-4-yl]phenyl}-3-furansulfonamide]: the IC50 is ≤ 3.16 nM.

For `O=S(=O)(Nc1cccc(-c2nc(C3CCOCC3)sc2-c2ccnc(NC3CCOCC3)n2)c1F)c1ccoc1` [Example 305, N-(2-fluoro-3-{2-(tetrahydro-2H-pyran-4-yl)-5-[2-(tetrahydro-2H-pyran-4-ylamino)-4-pyrimidinyl]-1,3-thiazol-4-yl}phenyl)-3-furansulfonamide], the IC50 is ≤ 3.16 nM.

With `O=S(=O)(Nc1cccc(-c2nc(C3CCOCC3)sc2-c2ccnc(NCCN3CCCC3)n2)c1F)c1ccoc1` [Example 306, N-{2-fluoro-3-[5-(2-{[2-(1-pyrrolidinyl)ethyl]amino}-4-pyrimidinyl)-2-(tetrahydro-2H-pyran-4-yl)-1,3-thiazol-4-yl]phenyl}-3-furansulfonamide], the IC50 was ≤ 3.16 nM.

For `O=S(=O)(Nc1cccc(-c2nc(C3CCOCC3)sc2-c2ccnc(NCCN3CCOCC3)n2)c1F)c1ccoc1` [Example 307, N-{2-fluoro-3-[5-(2-{[2-(4-morpholinyl)ethyl]amino}-4-pyrimidinyl)-2-(tetrahydro-2H-pyran-4-yl)-1,3-thiazol-4-yl]phenyl}-3-furansulfonamide], the IC50 was ≤ 3.16 nM.

On to `CC(C)(C(N)=O)c1nc(-c2cccc(NS(=O)(=O)c3c(F)cccc3F)c2F)c(-c2ccnc(N)n2)s1` [Example 309, 2-[5-(2-Amino-4-pyrimidinyl)-4-(3-{[(2,6-difluorophenyl)sulfonyl]amino}-2-fluorophenyl)-1,3-thiazol-2-yl]-2-methylpropanamide], for which the IC50 was ≤ 3.16 nM.

For the compound `Cc1nccc(-c2sc(C(C)(C)N)nc2-c2cccc(NS(=O)(=O)c3c(F)cccc3F)c2F)n1` [Example 310, N-{3-[2-(1-amino-1-methylethyl)-5-(2-methyl-4-pyrimidinyl)-1,3-thiazol-4-yl]-2-fluorophenyl}-2,6-difluorobenzenesulfonamide], the IC50 lay within 31.6 to 1000 nM.

As to `CC(C)(N)c1nc(-c2cccc(NS(=O)(=O)c3ccoc3)c2F)c(-c2ccnc(N)n2)s1` [Example 312, N-{3-[2-(1-amino-1-methylethyl)-5-(2-amino-4-pyrimidinyl)-1,3-thiazol-4-yl]-2-fluorophenyl}-3-furansulfonamide], the IC50 was ≤ 3.16 nM.

Consider `CC1(c2nc(-c3cccc(NS(=O)(=O)c4ccoc4)c3F)c(-c3ccnc(N)n3)s2)CCNCC1` [Example 319, N-{3-[5-(2-amino-4-pyrimidinyl)-2-(4-methyl-4-piperidinyl)-1,3-thiazol-4-yl]-2-fluorophenyl}-3-furansulfonamide], for which the IC50 is ≤ 3.16 nM.

For `Cc1nccc(-c2sc(C3(C)CCNCC3)nc2-c2cccc(NS(=O)(=O)c3ccoc3)c2F)n1` [Example 320, N-{2-fluoro-3-[2-(4-methyl-4-piperidinyl)-5-(2-methyl-4-pyrimidinyl)-1,3-thiazol-4-yl]phenyl}-3-furansulfonamide], the IC50 is ≤ 3.16 nM.

Staying with this assay, now noted: Table 1b; later runs, average pIC50 for the one or more runs, categorized; read-out: B-Raf pIC50 (converted).
As for `CC(C)(N)c1nc(-c2cccc(NS(=O)(=O)c3c(F)cccc3F)c2F)c(-c2ccnc(N)n2)s1` [Example 313, N-{3-[2-(1-amino-1-methylethyl)-5-(2-amino-4-pyrimidinyl)-1,3-thiazol-4-yl]-2-fluorophenyl}-2,6-difluorobenzenesulfonamide], the IC50 was 3.16 to 31.6 nM.

For `Cc1nccc(-c2sc(C3CCOCC3)nc2-c2cccc(NS(=O)(=O)c3ccoc3)c2F)n1` [Example 314, N-{2-fluoro-3-[5-(2-methyl-4-pyrimidinyl)-2-(tetrahydro-2H-pyran-4-yl)-1,3-thiazol-4-yl]phenyl}-3-furansulfonamide], the IC50 was 3.16 to 31.6 nM.

With `Cc1nccc(-c2sc(C3CCOCC3)nc2-c2cccc(NS(=O)(=O)c3c(F)cccc3F)c2F)n1` [Example 315, 2,6-difluoro-N-{2-fluoro-3-[5-(2-methyl-4-pyrimidinyl)-2-(tetrahydro-2H-pyran-4-yl)-1,3-thiazol-4-yl]phenyl}benzenesulfonamide], the IC50 was 3.16 to 31.6 nM.

Take `Cc1nccc(-c2sc(C(C)(C)CO)nc2-c2cccc(NS(=O)(=O)c3c(F)cccc3F)c2F)n1` [Example 316, 2,6-difluoro-N-{2-fluoro-3-[2-(2-hydroxy-1,1-dimethylethyl)-5-(2-methyl-4-pyrimidinyl)-1,3-thiazol-4-yl]phenyl}benzenesulfonamide]: the IC50 is 3.16 to 31.6 nM.

For `Cc1nccc(-c2sc(C3CCNCC3)nc2-c2cccc(NS(=O)(=O)c3c(F)cccc3F)c2F)n1` [Example 321, 2,6-difluoro-N-{2-fluoro-3-[5-(2-methyl-4-pyrimidinyl)-2-(4-piperidinyl)-1,3-thiazol-4-yl]phenyl}benzenesulfonamide], the IC50 is 3.16 to 31.6 nM.
